Each structure is given as a SMILES string.

This data set in a line: gradient 5% acetonitrile 3 min, to 50% in 2 min, to 85% in 15 min, held 3 min, 100 µL/min. The following applies: column: Zorbax Extend-C18 2.1 x 50 mm; eluents: water / acetonitrile, 0.1% formic acid. In outline:
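The mobile phases were water and acetonitrile, each with 0.1% formic acid, pumped at 100 μL/min through a Zorbax Extend-C18 column (2.1 × 50 mm, 1.8 μm). Pure standards were injected as mixtures of ~100 molecules and detected by a quadrupole time-of-flight mass spectrometer in positive and negative ionization mode. Retention time came from computationally picked adduct peaks, each inspected by hand.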
For `COc1ccc(OC)c(-c2csc(NC(=O)c3ccccc3)n2)c1`, the RP-LC retention time came out at 1040 s.

With `CCCn1ncc(N2CCC(C(=O)Nc3ccc(OC)cc3OC)CC2)cc1=O`, the RP-LC retention time came out at 723 s.

`CCN(CC)S(=O)(=O)c1ccc2c(c1)N(CC(=O)NCCC(C)C)C(=O)C1CCCCN21` (stereo not drawn): the RP-LC retention time was 991 s.

`Cc1nc2cc(NC(=O)COc3ccccc3)ccc2s1` showed an RP-LC retention time of 771 s.

Regarding `Cc1ccc(-n2ccnc2SCc2nc(-c3cccc(F)c3)no2)cc1`, the RP-LC retention time was 971 s.

With `Cc1cc(CN2CCC(CNC(=O)C(=O)Nc3cccnc3)CC2)c(C)o1`, the RP-LC retention time was determined as 681 s.

As to `Cc1cccc(N2CCN(C(=O)c3cn(-c4ccc(NC(=O)C5CC5)cn4)cn3)CC2)c1C`, the RP-LC retention time was 901 s.

Compound `O=C(NC1CC1)[C@@H]1C[C@H](Oc2ccccc2)CN1C(=O)CCC1CCCC1` yielded an RP-LC retention time of 886 s.

For the compound `CCOc1cc(C(=O)NC2CCN(c3cc(-c4ccccc4)[nH]n3)C2)cc(OCC)c1OCC` (stereo not drawn), the RP-LC retention time was found to be 822 s.

As for `CCOC(=O)c1nc(NCc2ccccc2Cl)c2ccccc2n1`, the RP-LC retention time stood at 834 s.

In turn, `Cc1ccc(N2CCN(C(=O)C3CC(=O)N(c4cccc(NC(=O)C(C)C)c4)C3)CC2)cc1` (stereo not drawn) returned an RP-LC retention time of 802 s.

`CCc1nc2ccc(-c3noc(C(C)NC(=O)c4ccco4)n3)cc2n1CC` (stereo not drawn) showed an RP-LC retention time of 621 s.

For `CCc1ccc(NC(=O)N2CC(n3cnnc3C3CCOCC3)C2)cc1`, the RP-LC retention time came out at 599 s.

In the case of `COC(=O)c1c(C)[nH]c(C(=O)N2CCC(CC(=O)NCCCc3ccccc3)CC2)c1C`, the RP-LC retention time was determined as 867 s.

In the case of `CC(C)NC(=O)c1n[nH]c2c1CCCC2`, the RP-LC retention time was found to be 662 s.

Regarding `CCn1cc(C)c(C(=O)O)c1CC(=O)NCc1cccnc1`, the RP-LC retention time worked out at 584 s.

`O=C(CCCn1nnc2ccccc2c1=O)Nc1nc2ccccc2[nH]1` had an RP-LC retention time of 570 s.

`Cc1ccnc(N2CCC(C(=O)NCCc3ccco3)CC2)n1` had an RP-LC retention time of 640 s.

Compound `Cc1ccc(C)c(N2CCN(c3ccnc(SCC(=O)NCc4ccc5c(c4)OCO5)n3)CC2)c1` gave an RP-LC retention time of 859 s.

Compound `CCc1cccc(NC(=O)Cn2ccc3ccc(-c4nnc(C)o4)cc32)c1` had an RP-LC retention time of 798 s.

`COc1ccc(S(=O)(=O)N2CCCC(C(=O)NCc3ccncc3)C2)cc1OC` (stereo not drawn) gave an RP-LC retention time of 591 s.

In turn, `O=C(C1=CCN(Cc2cccc(F)c2)CC1)N1CCN(c2ccccc2)CC1` had an RP-LC retention time of 642 s.

For `Cc1nc(CNC(=O)C2CCN(C(=O)Nc3ccc(C)c(C)c3)CC2)cs1`, the RP-LC retention time amounted to 675 s.

Compound `O=C(NCc1ccc(Br)cc1)c1cn2ccccc2n1` displayed an RP-LC retention time of 726 s.

In turn, `O=C(Nc1cccs1)N1CCC(c2ccccc2)C1` (stereo not drawn) came in with an RP-LC retention time of 810 s.

With `COc1ccc(NC(=O)c2ccc(-n3cnc(NC(=O)C4CC4)c3)cc2)cc1OC`, the RP-LC retention time was 645 s.

`CCn1cc(CCNC(=O)Nc2cccc(Cl)c2C)c2cccnc21` registered an RP-LC retention time of 761 s.

For `O=C(c1cn2c(n1)COCC2)N1CCN(c2cccc(Cl)c2)CC1`, the RP-LC retention time came to 708 s.

Consider `CCc1ccc(-c2noc(Cn3c(=O)n(-c4ccccc4C)c(=O)c4sccc43)n2)cc1`, for which the RP-LC retention time was determined as 1140 s.

In the case of `COc1ccc(-c2cc(=O)c3c(O)cc(O)cc3o2)cc1OC`, the RP-LC retention time is 770 s.

The compound `O=c1c2ccccc2n(Cc2nc(-c3ccc(C(F)(F)F)cc3)no2)c(=O)n1CC1CCCO1` (stereo not drawn) gave an RP-LC retention time of 1100 s.

Consider `Cn1nccc1-c1cccc(-c2noc(-c3ccccc3Br)n2)c1`, for which the RP-LC retention time is 1180 s.

On to `CC(Oc1ccc(-c2cnc3ccccc3n2)cc1)C(=O)N(C)Cc1ccco1` (stereo not drawn), for which the RP-LC retention time was 620 s.

The values are drawn from the METLIN SMRT retention time set (Domingo-Almenara et al. 2019).
